# Where no end group is shown, it is not given here. The star is where a group is joined. X1 = CC(=O)N[C@@H]1[C@@H](O)[C@H](O[C@@H]2O[C@H](CO)[C@@H](O[C@@H]3O[C@H](CO[C@H]4O[C@H](CO)[C@@H](O)[C@H](O)[C@@H]4O[C@@H]4O[C@H](CO)[C@@H](O[C@@H]5O[C@H](CO[C@]6(C(=O)O)C[C@H](O)[C@@H](NC(C)=O)[C@H]([C@H](O)[C@H](O)CO)O6)[C@H](O)[C@H](O)[C@H]5O)[C@H](O)[C@H]4NC(C)=O)[C@@H](O)[C@H](O[C@H]4O[C@H](CO)[C@@H](O)[C@H](O)[C@@H]4O[C@@H]4O[C@H](CO)[C@@H](O[C@@H]5O[C@H](CO[C@]6(C(=O)O)C[C@H](O)[C@@H](NC(C)=O)[C@H]([C@H](O)[C@H](O)CO)O6)[C@H](O)[C@H](O)[C@H]5O)[C@H](O)[C@H]4NC(C)=O)[C@@H]3O)[C@H](O)[C@H]2NC(C)=O)[C@@H](CO)O[C@H]1NC(=O)C*
# What was measured:
# [1] = Solubility of GLP-2/GLP-1 derivatives with respect to aqueous medium (PBS); assay type: physicochemical; details: for solubility with respect to PBS (FIG. 1): freeze-dried 5-200 nmol/tube, PBS added, ultrasonic treatment, overnight, supernatant OD 280 nm
# Experimental: Samples were prepared by dispensing a Milli-Q aqueous solution of PAS-CPP-GLP-2 (no sugar), PAS-CPP-GLP-2 (5-sugar) or PAS-CPP-GLP-2 (11-sugar) to a microtube by an amount of 5 nmol/tube, 30 nmol/tube, 60 nmol/tube, 120 nmol/tube or 200 nmol/tube, and freeze-drying the same. The freeze-dried samples were added with […] of PBS (Dulbecco's Phosphate Buffered Saline; Sigma-Aldrich, herein after the same), subjected to ultrasonic treatment, and allowed to stand overnight. Thereafter, the concentration of the peptide was measured. Specifically, a supernatant obtained by centrifuging the sample suspension was subjected to the measurement of OD (280 nm) with a spectrometer (NanoDrop™ 2000c spectrometer; Thermo Fisher Scientific K.K.)
# Administration solutions were prepared by mixing a PAS-CPP-GLP-2 derivative (no sugar) or a PAS-CPP-GLP-2 derivative (11-sugar) with PBS. […] The concentration of each GLP-2 derivative was adjusted to 0.6 nmol/4 μL.
# The concentration of a PAS-CPP-GLP-2 derivative (no sugar) or a PAS-CPP-GLP-2 derivative (11-sugar) was adjusted to 3.0 nmol/4 μL.
# [2] = Amount of migration to brain quantified by GLP-2 ELISA; assay type: in vivo; details: in vivo, inhaled or intranasal, 6.0 nmol/mouse intranasal, brain isolated 20 minutes after administration, read-out: amount of GLP-2 derivative in brain
# Experimental: Mice were intranasally administered with 16% DMSO or GLP-2 derivatives (6.0 nmol/mouse). The brain was isolated 20 minutes after the administration, and homogenized with BioMasher II (Nippi, Tokyo, Japan). A sample was prepared by performing centrifugal separation by 1000×g for 15 minutes and collecting a supernatant. The amount of a GLP-2 derivative in the sample was quantified using a GLP-2 ELISA kit. Specifically, a cleaning process including filling each well of a measurement plate with a cleaning fluid (350 μL) and suctioning the cleaning fluid with a pipette was performed three times. Subsequently, a labeled antigen solution (40 μL), a sample (25 μL) and a specific antibody solution (50 μL) were added in this order to the well and mixed. The measurement plate was tightly sealed and allowed to stand for 18 hours at 4° C. The cleaning process was performed three times, and a SA-HRP solution (100 μL) was added and allowed to permeate for 1.5 hours at room temperature (60 rpm). […] Finally, an enzyme reaction stop solution (100 μL) was added and an absorbance at 490 nm was measured with ARVO (PerkinElmer Japan Co., Ltd., Kanagawa, Japan) to calculate the concentration of a GLP-2 derivative.
# [3] = Brain distribution by immunostaining and fluorescence quantification (Example 7); assay type: in vivo; details: 3.0 nmol/mouse intranasal
# Experimental: Mice were intranasally administered with 16% DMSO or GLP-2 derivatives (3.0 nmol/mouse), and the brain was isolated 5 minutes, 10 minutes, 20 minutes and 60 minutes after the administration.
# The brain isolated 5 minutes or 10 minutes after the intranasal administration was subjected to infiltration fixation with 4% PFA at 4° C. overnight without performing perfusion fixation. The isolation of the brain 20 minutes or 60 minutes after the intranasal administration was performed by the following process.
# The mouse was fixed in a supine position under anesthesia with isoflurane, and the chest was incised. PBS and 4% PFA were perfused, in this order, from the left chamber of the heart throughout the whole body for fixing the tissue. The isolated brain was preserved in a 4% PFA solution. On the day following the isolation, the brain samples were substituted with 20% sucrose overnight (4° C.), and further with 30% sucrose overnight (4° C.). Thereafter, a frozen section with a thickness of 30 μm was prepared using a cryostat (CM3050S; Leica Microsystems).
# Sections of the olfactory bulb (OB) including olfactory nerves, pons/principal sensory nucleus of trigeminal nerve (Pr5), hippocampus (HIP) and dorsomedial nucleus of the hypothalamus (DMH) were prepared by referring to Nissil staining images and the brain map (Paxinos and Franklin, 2003).
# The frozen brain section was mounted on a slide glass, and a circle was drawn around the section with a liquid blocker. A blocking buffer was added inside the circle and the section was subjected to blocking for 30 minutes at room temperature. Thereafter, the section was added with a first antibody solution including a GLP-2 polyclonal antibody, diluted 200 times with a blocking solution, and subjected to incubation for 1 hour at room temperature. After washing three times with 1×PBS, the section was added with a second antibody solution including Alexa Fluor (trademark) 568 Goat Anti-Mouse IgG H&L, diluted 500 times with a BSA/PBS solution, and subjected to incubation for 1 hour at room temperature. After washing three times with 1×PBS, the section was mounted with ProLong (trademark) Diamond Antifade Mountant. After confirming the solidification of the mountant, the section was subjected to fluorescent observation and imaging with a confocal laser microscope (TCS SP8; Leica) and a software (Leica Application Suite X Software; Leica). Further, the fluorescent intensity in the image was calculated using the software and an average florescent intensity of each group was quantified.
# The mice were intranasally administered with a PAS-CPP-GLP-2 (no sugar) or a PAS-CPP-GLP-2 (11-sugar).
substance,measurement,setting,value
FFLIPKGRRRRRRRRGGHADGSFSDEMNTILDNLAARDFINWLIQTKITDC(X1)-OH [PAS-CPP-GLP-2 (11-sugar)],solubility in PBS,[1]; PBS,completely soluble in PBS
same,solubility with respect to PBS (FIG. 1),[1]; listed as GLP-2 derivatives (11-sugar),linearly improved
same,solubility with respect to PBS (FIG. 1),[1]; listed as glycosylated GLP-2 derivative (11-sugar),improved solubility
same,state of derivative in PBS administration solution,"[1]; mixed with PBS, 0.6 nmol/4 μL",completely dissolved
same,tissue level at time molar at 20 min,[2],0.0106 ± 0.000998 nmol/g
same,fluorescence at OB and Pr5,[3]; 5 minutes,a significant degree of fluorescence was observed
same,fluorescence at HIP and DMH,[3]; 20 minutes,intense fluorescence was observed
same,fluorescence intensity at OB or Pr5 compared with 5 minutes,[3]; 20 minutes,weaker than the fluorescence observed 5 minutes after the administration
same,fluorescence at HIP and DMH,[3]; 60 minutes,a significant degree of fluorescence was observed
same,fluorescence at OB and Pr5,[3]; 60 minutes,a significant degree of fluorescence was observed
same,fluorescence intensity at OB and Pr5 compared with 5 minutes,[3]; 60 minutes,weaker than the fluorescence observed 5 minutes after the administration
